Active and inactive are the calls of the source. The rule behind the calls is not given here.
Experiments:
PNT1A [1] = assay: Increase in systemic lupus erythematosus related gene expression in human PNT1A cells at 10 uM incubated for 8 hrs by Affymetrix human exon array relative to untreated control; assay type: functional
PNT1A [2] = assay: Increase in cytokine-cytokine receptor interaction related gene expression in human PNT1A cells at 10 uM incubated for 8 hrs by Affymetrix human exon array relative to untreated control; assay type: functional
PNT1A [3] = assay: Increase in apoptosis related gene expression in human PNT1A cells at 10 uM incubated for 8 hrs by Affymetrix human exon array relative to untreated control; assay type: functional
[4] = Induction of p21 protein expression in human PNT1A cells at 10 uM incubated for 8 hrs by Western blotting; assay type: cell-based
[5] = Antiproliferative activity against human PNT1A cells at 50 uM incubated for 24 hrs by BrdU incorporation assay; assay type: cell-based
PC-3 [6] = assay: Cytotoxicity against human PC3 cells incubated for 24 hrs by WST1 dye reduction assay; conditions: PC-3, 24 h
DU-145 = assay: Cytotoxicity against human DU145 cells incubated for 24 hrs by WST1 dye reduction assay; conditions: DU-145, 24 h
HepG2 = assay: Cytotoxicity against human HepG2 cells incubated for 24 hrs by WST1 dye reduction assay; conditions: HepG2, 24 h
Caco-2 = assay: Cytotoxicity against human Caco2 cells incubated for 24 hrs by WST1 dye reduction assay; conditions: Caco-2, 24 h
[7] = Binding affinity to insulin B chain N-terminal pentapeptide assessed as compound-insulin adduct formation by LC-MS method
[8] = Binding affinity to insulin A chain N-terminal pentapeptide assessed as compound-insulin adduct formation by LC-MS method
PC-3 [9] = conditions: Homo sapiens, 25 uM
Description: Inhibition of cell proliferation of human PC3 cells at 25 uM incubated for 24 hrs by BrdU incorporation assay

PC-3 [10] = assay: Increase in one carbon pool by folate related gene expression in human PC3 cells at 10 uM incubated for 8 hrs by Affymetrix human exon array relative to untreated control; assay type: functional
PC-3 [11] = assay: Increase in ABC transporters related gene expression in human PC3 cells at 10 uM incubated for 8 hrs by Affymetrix human exon array relative to untreated control; assay type: functional
PC-3 [12] = assay: Increase in nucleotide excision repair related gene expression in human PC3 cells at 10 uM incubated for 8 hrs by Affymetrix human exon array relative to untreated control; assay type: functional
PC-3 [13] = assay: Increase in systemic lupus erythematosus related gene expression in human PC3 cells at 10 uM incubated for 8 hrs by Affymetrix human exon array relative to untreated control; assay type: functional
PC-3 [14] = assay: Increase in aminoacyl-tRNA biosynthesis related gene expression in human PC3 cells at 10 uM incubated for 8 hrs by Affymetrix human exon array relative to untreated control; assay type: functional
PC-3 [15] = assay: Increase in base excision repair related gene expression in human PC3 cells at 10 uM incubated for 8 hrs by Affymetrix human exon array relative to untreated control; assay type: functional
PC-3 [16] = assay: Increase in homologous recombination related gene expression in human PC3 cells at 10 uM incubated for 8 hrs by Affymetrix human exon array relative to untreated control; assay type: functional
PC-3 [17] = assay: Increase in mismatch repair related gene expression in human PC3 cells at 10 uM incubated for 8 hrs by Affymetrix human exon array relative to untreated control; assay type: functional
PC-3 [18] = assay: Increase in pyrimidine metabolism related gene expression in human PC3 cells at 10 uM incubated for 8 hrs by Affymetrix human exon array relative to untreated control; assay type: functional
PC-3 [19] = assay: Increase in glycolysis/gluconeogenesis related gene expression in human PC3 cells at 10 uM incubated for 8 hrs by Affymetrix human exon array relative to untreated control; assay type: functional
PC-3 [20] = assay: Increase in lysine degradation related gene expression in human PC3 cells at 10 uM incubated for 8 hrs by Affymetrix human exon array relative to untreated control; assay type: functional
PC-3 [21] = assay: Increase in alanine and aspartate metabolism related gene expression in human PC3 cells at 10 uM incubated for 8 hrs by Affymetrix human exon array relative to untreated control; assay type: functional
PC-3 [22] = assay: Increase in colorectal cancer related gene expression in human PC3 cells at 10 uM incubated for 8 hrs by Affymetrix human exon array relative to untreated control; assay type: functional
PC-3 [23] = assay: Increase in small cell lung cancer related gene expression in human PC3 cells at 10 uM incubated for 8 hrs by Affymetrix human exon array relative to untreated control; assay type: functional
PC-3 [24] = assay: Increase in chronic myeloid leukemia related gene expression in human PC3 cells at 10 uM incubated for 8 hrs by Affymetrix human exon array relative to untreated control; assay type: functional
PC-3 [25] = assay: Increase in prostate cancer related gene expression in human PC3 cells at 10 uM incubated for 8 hrs by Affymetrix human exon array relative to untreated control; assay type: functional
PC-3 [26] = assay: Increase in glioma related gene expression in human PC3 cells at 10 uM incubated for 8 hrs by Affymetrix human exon array relative to untreated control; assay type: functional
PC-3 [27] = assay: Increase in TGF-beta signaling pathway related gene expression in human PC3 cells at 10 uM incubated for 8 hrs by Affymetrix human exon array relative to untreated control; assay type: functional
PC-3 [28] = assay: Increase in epithelial cell signaling in Helicobacter pylori infection related gene expression in human PC3 cells at 10 uM incubated for 8 hrs pre-treated for 1 hr with 50 uM PI3K inhibitor LY294002 by Affymetrix human exon array relative to untreated control; assay type: functional
PC-3 [29] = assay: Increase in ErbB signaling pathway related gene expression in human PC3 cells at 10 uM incubated for 8 hrs by Affymetrix human exon array relative to untreated control; assay type: functional
PC-3 [30] = assay: Increase in p53 signaling pathway related gene expression in human PC3 cells at 10 uM incubated for 8 hrs by Affymetrix human exon array relative to untreated control; assay type: functional
PC-3 [31] = assay: Increase in cell cycle related gene expression in human PC3 cells at 10 uM incubated for 8 hrs by Affymetrix human exon array relative to untreated control; assay type: functional
PC-3 [32] = assay: Increase in DNA replication related gene expression in human PC3 cells at 10 uM incubated for 8 hrs by Affymetrix human exon array relative to untreated control; assay type: functional
PNT1A [33] = assay: Increase in axon guidance related gene expression in human PNT1A cells at 10 uM incubated for 8 hrs by Affymetrix human exon array relative to untreated control; assay type: functional
PNT1A [34] = assay: Increase in glutathione metabolism related gene expression in human PNT1A cells at 10 uM incubated for 8 hrs by Affymetrix human exon array relative to untreated control; assay type: functional
PNT1A [35] = assay: Increase in glycine, serine, and threonine metabolism related gene expression in human PNT1A cells at 10 uM incubated for 8 hrs by Affymetrix human exon array relative to untreated control; assay type: functional
PC-3 [36] = assay: Induction of p21 protein expression in human PC3 cells at 10 uM incubated for 8 hrs by Western blotting in presence of 50 uM PI3K inhibitor LY294002 relative to untreated control; assay type: functional
PC-3 [37] = assay: Inhibition of cell proliferation of human PC3 cells at 10 uM incubated for 24 hrs by BrdU incorporation assay; assay type: functional; conditions: PC-3, 24 h
PC-3 [38] = assay: Increase in apoptosis gene expression in human PC3 cells at 10 uM incubated for 8 hrs by Affymetrix human exon array relative to untreated control; assay type: functional
[39] = Induction of p21 protein expression in human PNT1A cells at 50 uM incubated for 8 hrs by Western blotting; assay type: cell-based
PC-3 [40] = assay: Induction of p21 protein expression in human PC3 cells at 50 uM incubated for 8 hrs by Western blotting relative to untreated control; assay type: functional, cell-based

C[S+]([O-])CCCCN=C=S (stereo not drawn) [SULFORAPHANE]
fold change (FC) (PNT1A [1]): 4.3 | fold change (FC) (PNT1A [2]): 3.3 | fold change (FC) (PNT1A [3]): 4.8 | Activity [4]: Non-toxic | Activity [5]: Non-toxic | IC50 (PC-3 [6]): 32.4 µM | IC50 (DU-145): 13.8 µM | IC50 (HepG2): 24.9 µM | IC50 (Caco-2): 79.8 µM | Activity [7]: Active | Activity [8]: Active | inhibition (PC-3 [9]): Active

S=C=NCCc1ccccn1
fold change (FC) (PC-3 [10]): 2.8 | fold change (FC) (PC-3 [11]): 1.6 | fold change (FC) (PC-3 [12]): 1.8 | fold change (FC) (PC-3 [13]): 1.8 | fold change (FC) (PC-3 [14]): 1.8 | fold change (FC) (PC-3 [15]): 2.1 | fold change (FC) (PC-3 [16]): 2.4 | fold change (FC) (PC-3 [17]): 2.6 | fold change (FC) (PC-3 [18]): 1.6 | fold change (FC) (PC-3 [19]): 1.6 | fold change (FC) (PC-3 [20]): 1.8 | fold change (FC) (PC-3 [21]): 2 | fold change (FC) (PC-3 [22]): 1.5 | fold change (FC) (PC-3 [23]): 1.6 | fold change (FC) (PC-3 [24]): 1.9 | fold change (FC) (PC-3 [25]): 1.9 | fold change (FC) (PC-3 [26]): 1.9 | fold change (FC) (PC-3 [27]): 1.5 | fold change (FC) (PC-3 [28]): 1.6 | fold change (FC) (PC-3 [29]): 1.6 | fold change (FC) (PC-3 [30]): 2.1 | fold change (FC) (PC-3 [31]): 2.6 | fold change (FC) (PC-3 [32]): 3.1 | fold change (FC) (PNT1A [33]): 1.9 | fold change (FC) (PNT1A [34]): 2.8 | fold change (FC) (PNT1A [35]): 3.1 | fold change (FC) (PNT1A [1]): 3.6 | fold change (FC) (PNT1A [3]): 2.5 | fold change (FC) (PC-3 [36]): 8 | Activity [4]: Non-toxic | inhibition at 10 µM (PC-3 [37]): > 80% | Activity [5]: Non-toxic | IC50 (PC-3 [6]): 12.8 µM | IC50 (DU-145): 4.44 µM | IC50 (HepG2): 15.3 µM | IC50 (Caco-2): 15.2 µM | Activity [7]: Active | Activity [8]: Active | fold change (FC) (PC-3 [38]): 1.9

O=c1cc(N2CCOCC2)oc2c(-c3ccccc3)cccc12 [LY-294002]
Activity [39]: Toxic | Activity (PC-3 [40]): Active

From ChEMBL document CHEMBL2177083, “Enhanced in vitro biological activity of synthetic 2-(2-pyridyl) ethyl isothiocyanate compared to natural 4-(methylsulfinyl) butyl isothiocyanate” (J Med Chem, 2012)
